Data as given in article PMC9154192 (PLoS Biology, 2022).
Like-named read-outs stand apart in the source and are kept apart here. Marks after values point to notes of the source that are not given here.

Format: in vivo, SD rats
Protocol: Toxicity studies were conducted at Biotoxtech (Korea) under review and approval from IACUC (170842, 180144, 170889) of Biotoxtech. All animals used in the toxicity test were purchased from OrientBio (Korea).
A subchronic toxicity study was performed for PP2S. Female and male rats were divided into a control group (0 mg/kg/day, n = 15), a low-dose group (167 mg/kg/day, n = 10), a medium-dose group (500 mg/kg/day, n = 10), and a high-dose group (1,500 mg/kg/day, n = 15), respectively. Thus, there were a total of 8 groups. The drug was administered by oral gavage at 10 mL/kg body weight daily for 4 weeks. Five animals each in the control and high-dose groups continued their treatments for 2 more weeks. Clinical symptoms were observed, and body weight was measured during the test period for a total of 6 weeks; 0.5% methyl cellulose 1,500 cP (Sigma, USA) in water for injection (JW Pharmaceutical, Korea) was used as a vehicle. Control animals were treated with only the same volume of the vehicle.
Organ weights were measured while conducting a 4-week repeated oral toxicity study for PP2S. For all animals, wet weight of the following organs were measured, and the relative organ weight ratio to the fasted body weight was calculated. Organs with left and right sides were weighed together. […] In addition, changes observed with statistical significance in females of the recovery group were minor changes, which were not observed in the main test group. They were not accompanied by other related changes. Thus, they were judged to have no toxicological significance.

[1] = female, 167 mg/kg, dosing period
[2] = female, 500 mg/kg, dosing period
[3] = female, 1,500 mg/kg, dosing period
[4] = female, 1,500 mg/kg, recovery period
[5] = male, 1,500 mg/kg, dosing period
[6] = male, 1,500 mg/kg, recovery period
[7] = up to 1,500 mg/kg/day oral, 4 weeks of administration and 2 weeks of recovery

Compound: CCCCOc1ccc2cc(CN3C(=O)CC[C@H]3C(=O)OC)c3cc(OC)c(OC)cc3c2c1 [PP2S, Methyl (S)-1-((3-butoxy-6,7-dimethoxyphenanthren-9-yl)methyl)-5-oxopyrrolidine-2-carboxylate]
- effect on organ weights (all administration groups, male and female, main test and recovery group): effect of the test substance was not recognized
- B.W. (mean) [1]: 218.0 g
- Mean absolute organ weight, Adrenal [1]: 0.0775 g
- Mean absolute organ weight, Heart [1]: 0.87 g
- Mean absolute organ weight, Kidney [1]: 1.77 g
- Mean absolute organ weight, Liver [1]: 6.63 g
- Mean absolute organ weight, Lung [1]: 1.09 g
- Mean absolute organ weight, Ovary [1]: 0.0898 g
- Mean absolute organ weight, Pituitary [1]: 0.0140 g
- Mean absolute organ weight, Spleen [1]: 0.50 g
- Mean absolute organ weight, Uterus [1]: 0.52 g
- Mean relative organ weight, Adrenal [1]: 0.0357 g/100g body weight
- Mean relative organ weight, Brain [1]: 0.83 g/100g body weight
- Mean relative organ weight, Heart [1]: 0.40 g/100g body weight
- Mean relative organ weight, Kidney [1]: 0.81 g/100g body weight
- Mean relative organ weight, Liver [1]: 3.05 g/100g body weight
- Mean relative organ weight, Lung [1]: 0.50 g/100g body weight
- Mean relative organ weight, Ovary [1]: 0.0410 g/100g body weight
- Mean relative organ weight, Pituitary [1]: 0.0065 g/100g body weight
- Mean relative organ weight, Spleen [1]: 0.23 g/100g body weight
- Mean relative organ weight, Uterus [1]: 0.24 g/100g body weight
- B.W. (mean) [2]: 224.1 g
- Mean absolute organ weight, Adrenal [2]: 0.0755 g
- Mean absolute organ weight, Heart [2]: 0.89 g
- Mean absolute organ weight, Kidney [2]: 1.70 g
- Mean absolute organ weight, Liver [2]: 6.67 g
- Mean absolute organ weight, Lung [2]: 1.10 g
- Mean absolute organ weight, Ovary [2]: 0.0846 g
- Mean absolute organ weight, Pituitary [2]: 0.0139 g
- Mean absolute organ weight, Spleen [2]: 0.47 g
- Mean absolute organ weight, Uterus [2]: 0.53 g
- Mean relative organ weight, Adrenal [2]: 0.0337 g/100g body weight
- Mean relative organ weight, Brain [2]: 0.78 g/100g body weight
- Mean relative organ weight, Heart [2]: 0.40 g/100g body weight
- Mean relative organ weight, Kidney [2]: 0.76 g/100g body weight
- Mean relative organ weight, Liver [2]: 2.97 g/100g body weight
- Mean relative organ weight, Lung [2]: 0.49 g/100g body weight
- Mean relative organ weight, Ovary [2]: 0.0381 g/100g body weight
- Mean relative organ weight, Pituitary [2]: 0.0062 g/100g body weight
- Mean relative organ weight, Spleen [2]: 0.21 g/100g body weight
- Mean relative organ weight, Uterus [2]: 0.24 g/100g body weight
- B.W. (mean) [3]: 217.3 g
- Mean absolute organ weight, Adrenal [3]: 0.0730 g
- Mean absolute organ weight, Brain [3]: 1.86 g
- Mean absolute organ weight, Heart [3]: 0.84 g
- Mean absolute organ weight, Kidney [3]: 1.72 g
- Mean absolute organ weight, Liver [3]: 6.49 g
- Mean absolute organ weight, Lung [3]: 1.11 g
- Mean absolute organ weight, Ovary [3]: 0.0874 g
- Mean absolute organ weight, Pituitary [3]: 0.0139 g
- Mean absolute organ weight, Spleen [3]: 0.48 g
- Mean absolute organ weight, Uterus [3]: 0.47 g
- Mean relative organ weight, Adrenal [3]: 0.0335 g/100g body weight
- Mean relative organ weight, Brain [3]: 0.84 g/100g body weight
- Mean relative organ weight, Heart [3]: 0.38 g/100g body weight
- Mean relative organ weight, Kidney [3]: 0.79 g/100g body weight
- Mean relative organ weight, Liver [3]: 2.98 g/100g body weight
- Mean relative organ weight, Lung [3]: 0.51 g/100g body weight
- Mean relative organ weight, Ovary [3]: 0.0402 g/100g body weight
- Mean relative organ weight, Pituitary [3]: 0.0064 g/100g body weight
- Mean relative organ weight, Spleen [3]: 0.22 g/100g body weight
- Mean relative organ weight, Uterus [3]: 0.22 g/100g body weight
- B.W. (mean) [4]: 248.7 g
- Mean absolute organ weight, Adrenal [4]: 0.0723 g
- Mean absolute organ weight, Brain [4]: 1.86 g
- Mean absolute organ weight, Heart [4]: 0.91 g
- Mean absolute organ weight, Kidney [4]: 1.73 g
- Mean absolute organ weight, Liver [4]: 7.01 * g
- Mean absolute organ weight, Lung [4]: 1.17 * g
- Mean absolute organ weight, Ovary [4]: 0.1012 g
- Mean absolute organ weight, Pituitary [4]: 0.0154 g
- Mean absolute organ weight, Spleen [4]: 0.54 g
- Mean absolute organ weight, Uterus [4]: 0.54 g
- Mean relative organ weight, Adrenal [4]: 0.0291 g/100g body weight
- Mean relative organ weight, Brain [4]: 0.75 g/100g body weight
- Mean relative organ weight, Heart [4]: 0.37 g/100g body weight
- Mean relative organ weight, Kidney [4]: 0.69 g/100g body weight
- Mean relative organ weight, Liver [4]: 2.81 g/100g body weight
- Mean relative organ weight, Lung [4]: 0.48 g/100g body weight
- Mean relative organ weight, Ovary [4]: 0.0407 g/100g body weight
- Mean relative organ weight, Pituitary [4]: 0.0062 g/100g body weight
- Mean relative organ weight, Spleen [4]: 0.22 g/100g body weight
- Mean relative organ weight, Uterus [4]: 0.22 g/100g body weight
- B.W. (mean) (male, 167 mg/kg, dosing period): 363.4 g
- Mean absolute organ weight, Adrenal (male, 167 mg/kg, dosing period): 0.0619 g
- Mean absolute organ weight, Brain (male, 167 mg/kg, dosing period): 1.79 g
- Mean absolute organ weight, Heart (male, 167 mg/kg, dosing period): 1.33 g
- Mean absolute organ weight, Kidney (male, 167 mg/kg, dosing period): 2.59 g
- Mean absolute organ weight, Liver (male, 167 mg/kg, dosing period): 10.38 g
- Mean absolute organ weight, Lung (male, 167 mg/kg, dosing period): 1.42 g
- Mean absolute organ weight, Pituitary (male, 167 mg/kg, dosing period): 0.0109 g
- Mean absolute organ weight, Prostate (male, 167 mg/kg, dosing period): 0.40 g
- Mean absolute organ weight, Spleen (male, 167 mg/kg, dosing period): 0.69 g
- Mean absolute organ weight, Testis (male, 167 mg/kg, dosing period): 3.22 g
- Mean relative organ weight, Adrenal (male, 167 mg/kg, dosing period): 0.0170 g/100g body weight
- Mean relative organ weight, Brain (male, 167 mg/kg, dosing period): 0.54 g/100g body weight
- Mean relative organ weight, Heart (male, 167 mg/kg, dosing period): 0.37 g/100g body weight
- Mean relative organ weight, Kidney (male, 167 mg/kg, dosing period): 0.72 g/100g body weight
- Mean relative organ weight, Liver (male, 167 mg/kg, dosing period): 2.86 g/100g body weight
- Mean relative organ weight, Lung (male, 167 mg/kg, dosing period): 0.39 g/100g body weight
- Mean relative organ weight, Pituitary (male, 167 mg/kg, dosing period): 0.0030 g/100g body weight
- Mean relative organ weight, Prostate (male, 167 mg/kg, dosing period): 0.11 g/100g body weight
- Mean relative organ weight, Spleen (male, 167 mg/kg, dosing period): 0.19 g/100g body weight
- Mean relative organ weight, Testis (male, 167 mg/kg, dosing period): 0.89 g/100g body weight
- B.W. (mean) (male, 500 mg/kg, dosing period): 363.5 g
- Mean absolute organ weight, Adrenal (male, 500 mg/kg, dosing period): 0.0622 g
- Mean absolute organ weight, Brain (male, 500 mg/kg, dosing period): 1.74 g
- Mean absolute organ weight, Heart (male, 500 mg/kg, dosing period): 1.31 g
- Mean absolute organ weight, Kidney (male, 500 mg/kg, dosing period): 2.67 g
- Mean absolute organ weight, Liver (male, 500 mg/kg, dosing period): 10.46 g
- Mean absolute organ weight, Lung (male, 500 mg/kg, dosing period): 1.41 g
- Mean absolute organ weight, Pituitary (male, 500 mg/kg, dosing period): 0.0119 g
- Mean absolute organ weight, Prostate (male, 500 mg/kg, dosing period): 0.49 g
- Mean absolute organ weight, Spleen (male, 500 mg/kg, dosing period): 0.69 g
- Mean absolute organ weight, Testis (male, 500 mg/kg, dosing period): 3.32 g
- Mean relative organ weight, Adrenal (male, 500 mg/kg, dosing period): 0.0171 g/100g body weight
- Mean relative organ weight, Brain (male, 500 mg/kg, dosing period): 0.55 g/100g body weight
- Mean relative organ weight, Heart (male, 500 mg/kg, dosing period): 0.36 g/100g body weight
- Mean relative organ weight, Kidney (male, 500 mg/kg, dosing period): 0.74 g/100g body weight
- Mean relative organ weight, Liver (male, 500 mg/kg, dosing period): 2.87 g/100g body weight
- Mean relative organ weight, Lung (male, 500 mg/kg, dosing period): 0.39 g/100g body weight
- Mean relative organ weight, Pituitary (male, 500 mg/kg, dosing period): 0.0033 g/100g body weight
- Mean relative organ weight, Prostate (male, 500 mg/kg, dosing period): 0.14 g/100g body weight
- Mean relative organ weight, Spleen (male, 500 mg/kg, dosing period): 0.19 g/100g body weight
- Mean relative organ weight, Testis (male, 500 mg/kg, dosing period): 0.91 g/100g body weight
- B.W. (mean) [5]: 366.0 g
- Mean absolute organ weight, Adrenal [5]: 0.0630 g
- Mean absolute organ weight, Brain [5]: 1.81 g
- Mean absolute organ weight, Heart [5]: 1.33 g
- Mean absolute organ weight, Kidney [5]: 2.63 g
- Mean absolute organ weight, Liver [5]: 10.79 g
- Mean absolute organ weight, Lung [5]: 1.45 g
- Mean absolute organ weight, Pituitary [5]: 0.0113 g
- Mean absolute organ weight, Prostate [5]: 0.45 g
- Mean absolute organ weight, Spleen [5]: 0.74 g
- Mean absolute organ weight, Testis [5]: 3.35 g
- Mean relative organ weight, Adrenal [5]: 0.0172 g/100g body weight
- Mean relative organ weight, Brain [5]: 0.54 g/100g body weight
- Mean relative organ weight, Heart [5]: 0.37 g/100g body weight
- Mean relative organ weight, Kidney [5]: 0.72 g/100g body weight
- Mean relative organ weight, Liver [5]: 2.94 g/100g body weight
- Mean relative organ weight, Lung [5]: 0.40 g/100g body weight
- Mean relative organ weight, Pituitary [5]: 0.0031 g/100g body weight
- Mean relative organ weight, Prostate [5]: 0.12 g/100g body weight
- Mean relative organ weight, Spleen [5]: 0.20 g/100g body weight
- Mean relative organ weight, Testis [5]: 0.92 g/100g body weight
- B.W. (mean) [6]: 419.4 g
- Mean absolute organ weight, Adrenal [6]: 0.0595 g
- Mean absolute organ weight, Heart [6]: 1.36 g
- Mean absolute organ weight, Kidney [6]: 2.73 g
- Mean absolute organ weight, Liver [6]: 11.62 g
- Mean absolute organ weight, Lung [6]: 1.61 g
- Mean absolute organ weight, Prostate [6]: 0.59 g
- Mean absolute organ weight, Spleen [6]: 0.72 g
- Mean absolute organ weight, Testis [6]: 3.48 g
- Mean relative organ weight, Adrenal [6]: 0.0140 g/100g body weight
- Mean relative organ weight, Brain [6]: 0.48 g/100g body weight
- Mean relative organ weight, Heart [6]: 0.33 g/100g body weight
- Mean relative organ weight, Kidney [6]: 0.65 g/100g body weight
- Mean relative organ weight, Liver [6]: 2.76 g/100g body weight
- Mean relative organ weight, Lung [6]: 0.38 g/100g body weight
- Mean relative organ weight, Pituitary [6]: 0.0028 g/100g body weight
- Mean relative organ weight, Prostate [6]: 0.14 g/100g body weight
- Mean relative organ weight, Spleen [6]: 0.17 g/100g body weight
- Mean relative organ weight, Testis [6]: 0.83 g/100g body weight
- organ weight/histopathological changes (up to 1,500 mg/kg/day oral, 4 weeks): no organ weight/histopathological changes were observed
- change in body weight compared to control group [7]: did not lead to a significant change
- death or abnormal clinical symptoms [7]: did not cause death or abnormal clinical symptoms
